# What was measured:
# [1] = tested on: Legionella pneumophila biofilm; format: cell-based, Legionella pneumophila strain Philadelphia 1 (ATCC 33152); conditions: 5 days post-treatment after 7 days of treatment (Example 7 biofilms)
# [2] = tested on: Legionella pneumophila biofilm; format: cell-based, Legionella pneumophila strain Philadelphia 1 (ATCC 33152); conditions: 7 days; nanoparticles 1 microgram/milliliter, chlorine dioxide 0.1 ppm
structure (smiles),measurement,setting,value
"[O][Cl+][O-] [chlorine dioxide biocide, chlorine dioxide]",fold increase in biomass on day 12,[1],~1.25 fold
same,"biomass of biofilm after treatment (Example 7, FIG. 14)",[2],about 0.5 micrometers^3/micrometers^2

# From patent US20140093550A1 (priority 2012, published 2014)
